Test system: db/db mice
Test: Test Example 4: serum insulin in glucose tolerance test after 7-day oral dosing of saccharides
Type: in vivo
Method: Groups of male 9-week-old db/db mice (Clea Japan, Inc.) each consisting of 6 mice were fed CE-2 (Clea Japan, Inc.) for one week, so as to accustom the animals to the environment.
After acclimation, individual aqueous 10% solutions of 3′-sialyllactose (abbreviated as “3′-SL” hereinafter), 6′-sialylactose (abbreviated as “6′-SL”) and 2′-FL were orally administered to the mice at 200 mg (saccharide)/kg body weight in the morning and at 300 mg (saccharide)/kg body weight in the evening. The both volume of saline was administered to the control group. The individual aqueous saccharide solutions and saline were both dosed daily to the mice for 7 days. During the dosing period, CE-2 was given together with drinking water ad libitum.
After 18-hour starvation from the final dosing on day 7, an aqueous 40% glucose solution was orally administered to 2 g (glucose)/kg body weight to the mice, to perform glucose tolerance test. Zero minute and 30 minutes after glucose loading, blood was taken from a tail vein. […] Blood was centrifuged (4° C., 10000 rpm, 10 minutes), to obtain serum.
Insulin in the serum recovered was assayed by enzyme immunoassay using Lebis Insulin kit (for rats-T) (Shibayagi, Co., Ltd.) in the same manner as in the Test Example 1.

## 2′-fucosyllactose [2′-FL]
Continuous daily oral dosing
  serum insulin concentration during glucose loading compared with the control group (in words): increased
Oral 200 + 300 mg/kg daily, 7 days, glucose 2 g/kg oral, 30 minutes, mean ± SD
  Serum insulin concentration after glucose loading, 30 minutes: 8.3 ± 3.9 ng/mL
Oral 200 + 300 mg/kg daily, 7 days, glucose 2 g/kg oral, 120 minutes, mean ± SD
  Serum insulin concentration after glucose loading, 120 minutes: 26.1 ± 12.9 ng/mL
Oral 200 + 300 mg/kg daily, 7 days, glucose 2 g/kg oral, zero minute, mean ± SD
  Serum insulin concentration after glucose loading, Zero minute: 6.7 ± 3.3 ng/mL

Source: patent US20030181401A1, “Insulin secretion promoter” (KYOWA HAKKO KOGYO CO., LTD., priority 2002, published 2003)
